Article PMC10077475, “DG9-conjugated morpholino rescues phenotype in SMA mice by reaching the CNS via a subcutaneous administration” (JCI Insight, 2023)

Test system: severe SMA mouse model
Assay: Forelimb grip strength
Assay type: in vivo
Settings: 40 mg/kg s.c. at PD0, normalized to body weight
Experimental: This improvement was further bolstered by the forelimb grip strength assessment at PD30 in the DG9-PMO–treated mice (Figure 1E and Supplemental Figure 2A). […] We evaluated the relationship between the forelimb data and the sex at PD30. […] We also performed a rotarod test PD30 for the 40 mg/kg groups to assess their overall muscle coordination and balance ([41]). We observed that although the unconjugated PMO–treated mice had reduced forelimb grip strength, they were able to balance themselves on the rotating beam similar to DG9-PMO–treated mice owing to their smaller size and weight (Supplemental Figure 2C). Since we had only 2 MOE mice in this experiment, they were not included in the statistics. Taken together, based on conclusive findings from these functional tests, systemic injection of DG9-PMO improves motor function and muscle strength in both neonatal and adult SMA mice.
This assay was conducted as described in Treat NMD protocol SMA_M.2.1.002 ([73]). In short, the mouse is placed on the wire mesh of an automated grip strength meter (Columbus Instruments) such that only the front paws are allowed to grip the metal grid. The mouse is steadily pulled with the help of its tail, such that it lets go of the grid completely. PD30 and PD60 mice were used. Each mouse underwent 3 trials.

## CC(=O)N[C@@H](Cc1ccc(O)cc1)C(=O)N[C@@H](C)C(=O)N[C@H](CCCNC(=N)N)C(=O)N[C@H](C(=O)N[C@@H](CCCNC(=N)N)C(=O)N[C@@H](CCCNC(=N)N)C(=O)N[C@H](CCCNC(=N)N)C(=O)NCC(=O)N1CCC[C@H]1C(=O)N[C@@H](CCCNC(=N)N)C(=O)NCC(=O)N[C@@H](Cc1ccc(O)cc1)C(=O)N[C@@H](C)C(=O)N[C@H](CCCNC(=N)N)C(=O)N[C@H](C(=O)N[C@@H](CCCNC(=N)N)C(=O)N[C@@H](CCCNC(=N)N)C(=O)N[C@H](CCCNC(=N)N)C(=O)NCC(=O)N1CCC[C@H]1C(=O)N[C@@H](CCCNC(=N)N)C(=O)N[C@H](CCCNC(=N)N)C(=O)N1C[C@@H](COP(=O)(N(C)C)N2C[C@@H](COP(=O)(N(C)C)N3C[C@@H](COP(=O)(N(C)C)N4C[C@@H](COP(=O)(N(C)C)N5C[C@@H](COP(=O)(N(C)C)N6C[C@@H](COP(=O)(N(C)C)N7C[C@@H](COP(=O)(N(C)C)N8C[C@@H](COP(=O)(N(C)C)N9C[C@@H](COP(=O)(N(C)C)N%10C[C@@H](COP(=O)(N(C)C)N%11C[C@@H](COP(=O)(N(C)C)N%12C[C@@H](COP(=O)(N(C)C)N%13C[C@@H](COP(=O)(N(C)C)N%14C[C@@H](COP(=O)(N(C)C)N%15C[C@@H](COP(=O)(N(C)C)N%16C[C@@H](COP(=O)(N(C)C)N%17C[C@@H](COP(=O)(N(C)C)N%18C[C@@H](COP(=O)(N(C)C)N%19CCC(C(N)=O)CC%19)O[C@@H](n%19cc(C)c(=O)[nH]c%19=O)C%18)O[C@@H](n%18ccc(N)nc%18=O)C%17)O[C@@H](n%17cnc%18c(N)ncnc%18%17)C%16)O[C@@H](n%16ccc(N)nc%16=O)C%15)O[C@@H](n%15cc(C)c(=O)[nH]c%15=O)C%14)O[C@@H](n%14cc(C)c(=O)[nH]c%14=O)C%13)O[C@@H](n%13cc(C)c(=O)[nH]c%13=O)C%12)O[C@@H](n%12ccc(N)nc%12=O)C%11)O[C@@H](n%11cnc%12c(N)ncnc%12%11)C%10)O[C@@H](n%10cc(C)c(=O)[nH]c%10=O)C9)O[C@@H](n9cnc%10c(N)ncnc%109)C8)O[C@@H](n8cnc9c(N)ncnc98)C7)O[C@@H](n7cc(C)c(=O)[nH]c7=O)C6)O[C@@H](n6cnc7c(=O)[nH]c(N)nc76)C5)O[C@@H](n5ccc(N)nc5=O)C4)O[C@@H](n4cc(C)c(=O)[nH]c4=O)C3)O[C@@H](n3cnc4c(=O)[nH]c(N)nc43)C2)O[C@@H](n2cnc3c(=O)[nH]c(N)nc32)C1)C(C)C)C(C)C (stereo partly shown) [DG9-PMO]
  forelimb grip force at PD30: forelimb grip force comparable to the Hets and significantly higher than the unconjugated PMO– and MOE-treated mice
